Source: USRE39530E1, “3-amino-3-arylpropan-1-ol-compounds, their preparation and use” (Gruenenthal GmbH, priority 1999, dated 2007)

Tests used:
[1] = test system: benzothiazepine bonding site of the L-type calcium channel; assay: Bonding investigations on the L calcium channel, benzothiazepine bonding site (diltiazem bonding); type: binding; conditions: rat cerebrocortex membranes; for Diltiazem bonding at 10 μM: percentage inhibition at 10 μM test substance, [3H]-cis-(+)-diltiazem 5 nM
Description: Benzothiazepine Bonding Site (diltiazem bonding)
The biological membrane material was isolated from the cerebrocortex of the rat. [^3H]-cis-(+)-Diltiazem (5 nM in the batch) was used as the ligand. Incubation for 20 minutes at 25° C. The radioactivity measured in the presence of (+)-diltiazem (10^−6 M in the batch) is defined as non-specific bonding. At the end of the incubation, the non-bonded content of radioactive ligand is removed with the aid of a filtration process over Whatman glass fiber GF/B membranes. After a washing process, the membranes are then measured on a β-counter. The method has been established in accordance with the publication of Schoemaker and Langer (H. Schoemaker and S. Z. Langer (1985) Eur. J. Pharmacol. 111, 273-277).
(§1) In addition to the percentage inhibition of the test systems at fixed test substance concentrations (10 μM in the batch), dose-dependencies were investigated. In this investigation, IC50 values are obtained, and these can be converted by the “Cheng-Prusoff equation” (Y. C. Cheng and W. H. Prusoff (1973) Biochem. Pharmacol. 22, 3099-3108) into inhibitor constants (Ki). The IC50 values were obtained with the aid of the “Figure P” computer program (version 6.0, Biosoft, Cambridge, England). Km values were calculated by the method of Lineweaver and Burk (H. Lineweaver and D. Burk (1934) J. Am. Chem. Soc. 56, 658-666). The “Ligand” computer program (version 4, Biosoft, England) is used to obtain KD values.

[2] = test system: phenylquinone-induced writhing; assay: Phenylquinone-induced writhing test on mice; type: in vivo; conditions: male NMRI mice, 10 min before phenylquinone i.p., writhing counted 5 to 20 min after phenylquinone
Description: The analgesic activity was investigated on phenylquinone-induced writhing in mice (modified by I. C. Hendershot and J. Forsaith (1959) J. Pharmacol. Exp. Ther. 125, 237-240). Male NMRI mice weighing 25 to 30 g were used for this. Groups of 10 animals per dose of substance received 0.3 ml/mouse of a 0.02% aqueous solution of phenylquinone (phenylbenzoquinone), Sigma, Deisenhofen; preparation of the solution with addition of 5% ethanol and storage in a water bath at 45° C.) as an intraperitoneal administration 10 minutes after intravenous administration of the test substances. The animals were placed individually in observation cages. The number of pain-induced extension movements (so-called writhing reactions=straightening of the body with stretching out of the hind extremities) 5 to 20 minutes after the administration of phenylquinone was counted by means of a push-button counter. Animals which receive only physiological saline solution were also run as a control. All the substances were tested in the standard dosage of 10 mg/kg. The percentage inhibition (% inhibition) of the writhing reaction by a substance was calculated in accordance with the following equation: [formula] For some substances, the ED50 values with 95% confidence limits of the writhing reaction were calculated from the dose-dependent decrease in the writhing reactions compared with phenylquinone control groups investigated in parallel by means of regression analysis (evaluation program of Martens EDV Service, Eckental).

[3] = test system: bonding site 2 of the sodium channel (BTX bonding site); assay: Bonding investigations on the sodium channel, bonding site 2 (BTX bonding); type: binding; conditions: rat cerebrocortex synaptosomes; for BTX bonding at 10 μM: percentage inhibition at 10 μM test substance, [3H]-batrachotoxin A20 α-benzoate 10 nM
Description: Bonding Site 2 (BTX bonding)
Bonding site 2 of the sodium channel is the so-called batrachotoxin (BTX) bonding site. [^3H]-Batrachotoxin A20 α-benzoate (10 nM in the batch) was employed as the ligand. These ion channel particles (synaptosomes) were concentrated out of the rat cerebrocortex by the method of Gray and Whittaker (E. G. Gray and V. P. Whittaker (1962) J. Anat. 76, 79-88). The radioactivity measured in the presence of veratridin (0.3 mM in the batch) is defined as non-specific bonding. Incubation at 37° C. for 120 min. The assay conditions were implemented in accordance with the publication of Pauwels, Leysen and Laduron (P. J. Pauwels, J. E. Leysen and P. M. Laduron (1986) Eur. J. Pharmacol. 124, 291-298).
as §1

| Compound | Diltiazem bonding at 10 μM [1] [%] | % Inhibition of the writhing reaction at 10 mg/kg intravenously [2] [%] | BTX bonding at 10 μM [3] [%] | Kd ([3]; radioligand, means±SEM, N=3, read-out: KD value for this bonding site) [nM] | Kd ([1]; radioligand, means±SEM, N=3, read-out: KD value for this high-affinity bonding site) [nM] |
| --- | --- | --- | --- | --- | --- |
| Cc1ccccc1COC1CCCCC1C(c1ccccc1)N(C)C.Cl (stereo not shown) [Example 1, Dimethyl-{[2-(2-methyl-benzyloxy)cyclohexyl]phenylmethyl}-amine hydrochloride] | 82 | 85 | 99 |  |  |
| CN(C)C(c1ccccc1)C1CCCCC1OC(=O)c1ccc(C(F)(F)F)cc1.Cl (stereo not shown) [Example 2, [2-(Dimethylaminophenylmethyl)cyclohexyl]-4-trifluoromethylbenzoate hydrochloride] |  | 48 | 98 |  |  |
| COc1ccc(C(=O)OC2CCCCC2C(c2ccccc2)N(C)C)cc1.Cl (stereo not shown) [Example 3, [2-(Dimethylaminophenylmethyl)cyclohexyl]4-methoxybenzoate hydrochloride] | 65 | 43 | 89 |  |  |
| CN(C)C(c1ccccc1Cl)C1CCCCC1OCc1ccccc1Cl.Cl (stereo not shown) [Example 4, {[2-(2-Chlorobenzyloxy)cyclohexyl]-(2-chlorophenyl)methyl}-dimethylamine hydrochloride] | 73 | 32 | 92 |  |  |
| CN(C)C(c1ccccc1)C1CCCCC1OCc1cccc(F)c1.Cl (stereo not shown) [Example 5, {[2-(3-Fluorobenzyloxy)cyclohexyl]-phenylmethyl}dimethylamine hydrochloride] | 89 | 74 | 98 |  |  |
| CN(C)C(c1ccccc1)C1CCCCC1OCc1ccc(F)cc1.Cl (stereo not shown) [Example 6, {[2-(4-Fluorobenzyloxy)cyclohexyl]-phenylmethyl}dimethylamine hydrochloride] | 86 | 68 | 97 |  |  |
| [^3H]-Batrachotoxin A20 α-benzoate [reference compound] |  |  |  | 24.6 ± 1.56 |  |
| [^3H]-cis-(+)-Diltiazem [reference compound] |  |  |  |  | 4.1 ± 0.75 |
